Assay [1] in a line: Cytotoxicity against human MKN45 cells after 72 hrs by MTT assay. Particulars: MKN-45, 72 h.
The subject of assay [2] is MDA-MB-231. Put plainly: Cytotoxicity against human MDA-MB-231 cells after 72 hrs by MTT assay. It is filed as functional, cell-based. The note with it: MDA-MB-231, 72 h.
Assay [3] deals with HT-29. Put plainly: Cytotoxicity against human HT-29 cells after 72 hrs by MTT assay. The note with it: HT-29, 72 h. In general terms: Formazan colour is commonly taken as a measure of viable cells.
Assay [4] relates to A549. Put plainly: Cytotoxicity against human A549 cells after 72 hrs by MTT assay. It is filed as functional, cell-based. The note with it: A549, 72 h.

The term IC50 denotes the midpoint of a concentration-inhibition curve. Low readings indicate greater potency, high ones weaker potency.

As for `COc1cc2c(Oc3ccc(NC(=S)N/N=C/c4ccc(F)c(F)c4)cc3F)ccnc2cc1OCCCN1CCCCC1`, the IC50 in assay [1] stood at 740 nM; in assay [2], 1400 nM; in assay [3], 610 nM.
In the case of `COc1cc2c(Oc3ccc(NC(=O)N/N=C/c4ccc(C(F)(F)F)cc4)cc3F)ccnc2cc1OCCCN1CCCC1`, the IC50 in assay [1] was 1300 nM; in assay [4] it was 790 nM; in assay [2] it was 1800 nM; in assay [3], 810 nM.
Turning to `COc1cc2c(Oc3ccc(NC(=O)N/N=C/c4ccc([N+](=O)[O-])cc4)cc3F)ccnc2cc1OCCCN1CCOCC1`, the 50% inhibitory concentration (IC50) was 750 nM in assay [1], 1700 nM in assay [2] and 710 nM in assay [3].
`COc1cc2c(Oc3ccc(NC(=O)N/N=C/c4ccc(O)cc4)cc3F)ccnc2cc1OCCCN1CCCCC1`: the IC50 in assay [1] was 850 nM; in assay [4], 780 nM; in assay [2], 790 nM; in assay [3] it was 470 nM.
In the case of `COc1cc2c(Oc3ccc(NC(=O)N/N=C/c4ccc([N+](=O)[O-])cc4)cc3F)ccnc2cc1OCCCN1CCC(C)CC1`, the IC50 was 420 nM in assay [1], 380 nM in assay [4], 870 nM in assay [2] and 230 nM in assay [3].
Taken in the same sequence, the figures for `COc1cc2c(Oc3ccc(NC(=O)N/N=C/c4ccc(OC(F)(F)F)cc4)cc3F)ccnc2cc1OCCCN1CCCCC1` were 630 nM, 590 nM, 820 nM and 510 nM.
Taken in the same sequence, the figures for `COc1cc2c(Oc3ccc(NC(=O)N/N=C/c4ccc(C(F)(F)F)cc4)cc3F)ccnc2cc1OCCCN1CCCCC1` were 630 nM, 660 nM, 1100 nM and 660 nM.
Regarding `COc1cc2c(Oc3ccc(NC(=S)N/N=C/c4ccc(Cl)cc4)cc3F)ccnc2cc1OCCCN1CCCCC1`, the concentration for half-maximal inhibition (IC50) in assay [1] was 500 nM; in assay [2] it was 1300 nM; in assay [3] it was 190 nM.
Consider `COc1cc2c(Oc3ccc(NC(=O)N/N=C/c4ccncc4)cc3F)ccnc2cc1OCCCN1CCCCC1`, for which the IC50 in assay [1] came out at 980 nM; in assay [4], 840 nM; in assay [2] it was 1400 nM; in assay [3], 940 nM.
On to `COc1cc2c(Oc3ccc(NC(=O)N/N=C/c4ccc(N(C)C)cc4)cc3F)ccnc2cc1OCCCN1CCCCC1`, for which the IC50 stood at 870 nM in assay [1], 1400 nM in assay [2] and 1000 nM in assay [3].
Take `C=CCc1cccc(/C=N/NC(=O)Nc2ccc(Oc3ccnc4cc(OCCCN5CCCCC5)c(OC)cc34)c(F)c2)c1OC`: the IC50 in assay [1] is 670 nM; in assay [4], 250 nM; in assay [2], 790 nM; in assay [3], 460 nM.
Taken in the same sequence, the figures for `COc1cc2c(Oc3ccc(NC(=O)N/N=C/c4ccc(C(F)(F)F)cc4)cc3F)ccnc2cc1OCCCN1CCC(C)CC1` were 1000 nM, 650 nM, 1300 nM and 740 nM.
Turning to `COc1cc2c(Oc3ccc(/C=N/NC(=O)Nc4ccc(F)c(F)c4)cc3F)ccnc2cc1OCCCN1CCCCC1`, the half-maximal inhibitory concentration (IC50) turned out to be 320 nM in assay [1], 960 nM in assay [2] and 490 nM in assay [3].
On to `COc1cc2c(Oc3ccc(/C=N/NC(=O)Nc4ccc(Br)cc4)cc3F)ccnc2cc1OCCCN1CCCCC1`, for which the figures for the IC50 in assay [1], in assay [2] and in assay [3] were 60 nM, 800 nM and 270 nM, respectively.
Regarding `COc1cc2c(Oc3ccc(NC(=O)N/N=C/c4ccc(Cl)cc4Cl)cc3F)ccnc2cc1OCCCN1CCC(C)CC1`, the IC50 was determined as 350 nM in assay [1], 910 nM in assay [2] and 470 nM in assay [3].
Regarding `COc1ccc(/C=N/NC(=O)Nc2ccc(Oc3ccnc4cc(OCCCN5CCCCC5)c(OC)cc34)c(F)c2)c(OC)c1`, the figures for the IC50 in assay [1], in assay [4] and in assay [3] were 1990 nM, 1400 nM and 1600 nM, respectively.
For the compound `COc1cc2c(Oc3ccc(NC(=O)N/N=C/c4ccc(Cl)cc4Cl)cc3F)ccnc2cc1OCCCN1CCCCC1`, the IC50 turned out to be 460 nM in assay [1], 750 nM in assay [2] and 370 nM in assay [3].

For the origin of these results see ChEMBL document CHEMBL3763046 (Bioorg Med Chem, 2016).
